Among the test systems are UACC-62; MOLT-4; HOP-62; HT-29; M14; IGROV-1; RXF 393; SK-MEL-5; SR; OVCAR-8; NCI-H23; TK-10; SF-295; SF-539; MDA-MB-435; 786-0; EKVX; U-251; A549; SN12C.
Holding throughout (test): inhibition of tumour cell growth, NCI panel, 48 h

Molecules are shown by their SMILES.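 96-well plates; 48 h exposure; 5 concentrations. Endpoints by linear interpolation between flanking doses. Not reached: highest tested concentration assigned. GI50 marks 50% less growth.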 Calls of active or inactive are those of the source. Rule as the data show it: active = GI50 up to about 1.1 µM and inactive = higher.

For the compound `O=C1C(Nc2ccc(S(=O)(=O)Nc3cnc4ccccc4n3)cc2)=C/C(=N\c2ccc(S(=O)(=O)Nc3cnc4ccccc4n3)cc2)c2ccccc21`, the GI50 was 18.2 µM (inactive) in the experiment on UACC-62; 25 µM (inactive) in the experiment on MOLT-4; 18.3 µM (inactive) in the experiment with HOP-62; 20.4 µM (inactive) in the experiment on HT-29; 18.5 µM (inactive) with M14; 19.1 µM (inactive) in the experiment on IGROV-1. For the same compound, the GI50 with RXF 393 is 17.7 µM (inactive); in the experiment with SK-MEL-5 it was 17.5 µM (inactive); in the experiment on SR, 31.4 µM (inactive); with OVCAR-8 it was 19.8 µM (inactive); with NCI-H23 it was 18.7 µM (inactive); with TK-10, 30.7 µM (inactive). Besides, the GI50 with SF-295 is 16.3 µM (inactive); in the experiment on SF-539 it was 18.9 µM (inactive); with MDA-MB-435 it was 18.9 µM (inactive); in the experiment with 786-0, 17.2 µM (inactive); in the experiment on EKVX it was 18.2 µM (inactive); in the experiment with U-251, 19.1 µM (inactive). Also, the GI50 in the experiment with A549 is 19.7 µM (inactive); in the experiment with SN12C it was 16.7 µM (inactive).

For the compound `Cc1cc(C)c2c(O)cc(-c3cccc(Cl)c3)nc2n1`, the GI50 in the experiment with UACC-62 is 0.0681 µM (active); in the experiment on MOLT-4 it was 0.161 µM (active); in the experiment with HOP-62 it was 0.438 µM (active); in the experiment on HT-29 it was 0.122 µM (active); in the experiment with M14, 0.134 µM (active); in the experiment with IGROV-1 it was 0.2 µM (active). Also, the GI50 in the experiment with RXF 393 is 0.179 µM (active); in the experiment on SK-MEL-5, 0.0518 µM (active); in the experiment with SR, 0.0855 µM (active); in the experiment with OVCAR-8, 0.4 µM (active); in the experiment with NCI-H23, 0.76 µM (active); with TK-10, > 41.1 µM (inactive). Also, the GI50 was 0.0492 µM (active) in the experiment with SF-295; 0.119 µM (active) with SF-539; 0.0115 µM (active) in the experiment with MDA-MB-435; 0.261 µM (active) in the experiment with 786-0; > 25 µM (inactive) with EKVX; 0.206 µM (active) in the experiment with U-251. The GI50 in the experiment on A549 is 0.227 µM (active); in the experiment with SN12C, 0.187 µM (active).

(Values after ChEMBL document CHEMBL1201862, “PubChem BioAssay data set” (2004).)
